A short description of the data set: log P by HPLC (EEC Directive 79/831 Annex V.A8). In kind it is physicochemical. The note with it: HPLC with aqueous formic acid/acetonitrile eluents, pH 2.7. As for the experimental part: The log P values were measured according to EEC Directive 79/831 Annex V.A8 by HPLC (high-performance liquid chromatography).
The LC-MS determination within the acidic range is effected at pH 2.7 with 0.1% aqueous formic acid and acetonitrile (contains 0.1% formic acid) as eluents; linear gradient from 10% acetonitrile to 95% acetonitrile.
The calibration is carried out using unbranched alkan-2-ones (having 3 to 16 carbon atoms) with known log P values (determination of the log P values by the retention times using linear interpolation between two successive alkanones). The lambda-maX values were determined in the maxima of the chromatographic signals using the UV spectra from 200 nm to 400 nm.

Where two headings read alike, the source gives them in different places.

`CCOC(=O)c1csc(C2(F)CCN(C(=O)Cn3nc(C(F)F)cc3C(F)F)CC2)n1` [IXa-1, Ethyl 2-(1-{[3,5-bis(difluoromethyl)-1H-pyrazol-1-yl]acetyl}-4-fluoropiperidin-4-yl)-1,3-thiazole-4-carboxylate]: the chromatographic logP (read-out: log P (pH2.7)) turned out to be 2.82.
The same measure, in the same setting: for `CN(C(=O)c1csc(C2(F)CCN(C(=O)Cn3nc(C(F)F)cc3C(F)F)CC2)n1)C1CCCc2ccccc21` (racemic) [I-a-4, (±)-2-(1-{[3,5-bis(Difluoromethyl)-1H-pyrazol-1-yl]acetyl}-4-fluoropiperidin-4-yl)-N-methyl-N-(1,2,3,4-tetrahydronaphthalen-1-yl)-1,3-thiazole-4-carboxamide] the value was 3.56.
As for `CC(C)(C)OC(=O)N1CCC(O)(c2nc(Br)cs2)CC1` [IV-1, tert-Butyl 4-(4-bromo-1,3-thiazol-2-yl)-4-hydroxypiperidine-1-carboxylate], the chromatographic logP (HCOOH, read-out: log P (HCOOH)) stood at 2.74.
Turning to `O=C(O)c1csc(C2(F)CCN(C(=O)Cn3nc(C(F)F)cc3C(F)F)CC2)n1` [Xa-1, 2-(1-{[3,5-bis(Difluoromethyl)-1H-pyrazol-1-yl]acetyl}-4-fluoropiperidin-4-yl)-1,3-thiazole-4-carboxylic acid], the chromatographic logP (read-out: log P (pH2.7)) was 1.96.
For `CCOC(=O)c1csc(C2(F)CCNCC2)n1` [VII-1, 4-[4-(Ethoxycarbonyl)-1,3-thiazol-2-yl]-4-fluoropiperidinium chloride], the chromatographic logP (read-out: log P (pH2.7)) was 0.39.
Take `CC(C)(C)OC(=O)N1CCC(F)(c2nc(Br)cs2)CC1` [Va-1, tert-Butyl 4-(4-bromo-1,3-thiazol-2-yl)-4-fluoropiperidine-1-carboxylate]: the chromatographic logP (HCOOH, read-out: log P (HCOOH)) stood at 3.94.
Turning to `CCOC(=O)c1csc(C2(F)CCN(C(=O)OC(C)(C)C)CC2)n1` [VIa-1, tert-Butyl 4-[4-(ethoxycarbonyl)-1,3-thiazol-2-yl]-4-fluoropiperidine-1-carboxylate], the chromatographic logP (read-out: log P (pH2.7)) was determined as 3.47.
